The values that follow come from patent US5753614A, “Nisin compositions for use as enhanced, broad range bactericides” (AMBI Inc., priority 1995, dated 1998).

The subject of experiment [1] is S. typhimurium. Description: Bactericidal activity, percent survival of S. typhimurium suspension. The settings on record: for % Survival at 2 hours: S. typhimurium. In kind it is cell-based, Salmonella typhimurium. Here is the method: (§1) All tests in the following examples were performed at 37° C. The efficacy of the enhanced broad range bactericides was determined by assaying bactericidal activity as measured by the percent bacterial survival after treatment with the bactericide. Generally, after incubation of a 10^7 cell per ml suspension of target species with the novel bactericide for specified lengths of time, bacteria were collected by centrifugation for 2 minutes. The bacterial pellet was washed free of the bactericide with a rescue buffer, termed herein Phage buffer (50 mM Tris-HCl buffer pH 7.8, 1 mM MgSO4, 4 mM CaCl2, 0.1M Nacl, and 0.1% gelatin), resuspended and serially diluted into Phage buffer, and 100 μl of the suspended bacteria were spread on nutrient agar plates. Surviving bacteria were determined by scoring colony forming units (CFU) after incubation for 24-48 hours at 37° C.
The control (Test #1) is identical to the control of Example 1 (Table 1).

The test system of experiment [2] is Streptococcus mutans. The experiment is described as follows: Kinetics of bactericidal activity towards Streptococcus mutans. In kind it is cell-based. To be noted: S. mutans, nisin 0 with 1.0 mM EDTA, pH 7.3.
Procedure: The suspensions were incubated for various times ranging from 0.5 to 60 minutes with the bactericides. The bactericidal efficacy of the bactericides was estimated by determining the percent survival of bacteria.
Incubations were performed in 20 mM TrisHCl, pH 7.3 at 37° C.
Experiment [3] deals with Escherichia coli. Description: Rapid bactericidal activity towards Escherichia coli (1 min). In kind it is cell-based. To be noted: E. coli; EDTA 1.0 mM, nisin 0; 20 mM Tris pH 7.0. Here is the method: as §1
Incubations were performed in 20 mM Tris, pH 7.0 at 37° C.

Experiment [4] deals with Coryneform bacteria. The experiment is described as follows: Bactericidal activity towards Coryneform bacteria. In kind it is cell-based, mixed population of axillary Coryneform bacteria. The method, then: as §1
(§2) Incubations were performed in 20 mM TrisHCl, pH 8.0 at 37° C.

The test system of experiment [5] is E. coli. Description: Bactericidal activity, percent survival of E. coli at 2 hours. To be noted: for Percentage E. coli Survival at 2 hours: Tris pH 8.0. In kind it is cell-based, Escherichia coli. The method, then: as §1
The effects of the bactericide were measured as a function of percentage bacteria survival after 2 hours.

Experiment [6] relates to K. pneumoniae. The experiment is described as follows: Bactericidal activity, percent survival of K. pneumoniae. Type of experiment: cell-based, Klebsiella pneumoniae. The method, then:
as §1
The effect was measured as a function of percentage bacterial survival after 2 hours.

Experiment [7] has as its system Listeria monocytogenes. Description: Bactericidal activity towards Listeria monocytogenes in Tris buffer. Type of experiment: cell-based. The settings on record: L. monocytogenes. The method, then: as §1, §2
Experiment [8] deals with S. typhimurium on chicken muscle. Description: Bactericidal activity towards S. typhimurium on chicken muscle (unadhered cells). Type of experiment: cell-based, Salmonella typhimurium. The method, then: Incubations were performed in either 50 mM sodium acetate, pH 5.0, or 20 mM Tris, pH 8.0 at 37° C.
Cubes of chicken muscle were cleansed with sodium hypochlorite and povidone iodine prior to use. To inoculate the tissue, the cubes of chicken muscle were dipped into a 10^8 cells/ml suspension of S. typhimurium in 20 mM Tris HCl, pH 8.0. Excess moisture was removed from dipped cubes by tapping. The chicken samples were placed into sufficient buffer containing the nisin composition to cover the tissue and incubated for 2 hours at 37° C. after which the tissue was removed to sufficient Phage buffer to cover the tissue. The bacteria remaining in the test solution were collected by centrifugation, washed with Phage buffer, and combined with bacteria washed from the tissue by Phage buffer. The combined samples (termed "unadhered" cells) were serially diluted and 100 μl aliquots were plated for determination of surviving bacteria.
(§3) Cubes of chicken muscle were cleansed with sodium hypochlorite and povidone iodine prior to use. To inoculate the tissue, the cubes of chicken muscle were dipped into a 10^8 cells/ml suspension of S. typhimurium in 20 mM Tris HCl, pH 8.0. Excess moisture was removed from dipped cubes by tapping. The tissue was placed into sufficient buffer containing the nisin compositions to cover the tissue, and incubated for 2 hours at 37° C. after which the tissue was removed to sufficient Phage buffer to cover the tissue. The bacteria remaining in the test solution were collected by centrifugation, washed with Phage buffer, and combined with bacteria washed from the tissue by Phage buffer. The combined samples (termed "unadhered" cells) were serially diluted and 100 μl aliquots were plated for determination of surviving bacteria.
as §3, with “cleaned” for “cleansed”, “50” for “20”, “sodium acetate buffer,” for “Tris HCl,”, “5.0.” for “8.0.”, “containing” for “containing the”

The subject of experiment [9] is Staphylococcus aureus. The experiment is described as follows: Bactericidal activity towards Staphylococcus aureus, influence of pH and EDTA. Type of experiment: cell-based. To be noted: S. aureus. Here is the method: as §1
Incubations were performed in 50 mM sodium acetate buffer, pH 5.0 or 20 m
TrisHCl buffer, pH 8.0 at 37° C.

For experiment [10], the system named is Streptococcus agalactiae. The experiment is described as follows: Bactericidal activity towards Streptococcus agalactiae in milk. Type of experiment: cell-based. To be noted: S. agalactiae in milk. The method, then:
as §1
However, the combination of the two agents, 0.1% monolaurin and nisin 0.2 μg/ml, is extremely potent towards S. agalactiae. […] Thus, when the application of nisin is limited by its available activity, a bactericide comprising nisin with a surfactant can be expected to be more useful.
(§4) Incubations were in milk at 37° C.

The test system of experiment [11] is Streptococcus mutans. The experiment is described as follows: Bactericidal activity towards Streptococcus mutans at 2 hr. Type of experiment: cell-based. The settings on record: S. mutans; nisin 0.1 μg/ml, EDTA 0; 20 mM TrisHCl pH 8.0. The method, then:
as §1, §2

For experiment [12], the system named is Listeria monocytogenes. The experiment is described as follows: Bactericidal activity towards Listeria monocytogenes in milk. Type of experiment: cell-based. To be noted: for % Survival 2 hr: L. monocytogenes in milk. The method, then: as §1
An example of where the application of nisin is limited by its available activity is illustrated by the data in Table 15B.
as §4

Where [13] appears, read: nisin 3.0 μg/ml, EDTA 0, pH 8.0.

Turning to `O=C([O-])CN(CCN(CC(=O)[O-])CC(=O)O)CC(=O)O.[Na+].[Na+]` [EDTA], the “Percentage S. typhimurium Survival at 3 hours” value in experiment [1] (EDTA 20 mM, nisin 0, 20 mM Tris pH 8.0) came out at 2.5%. Moreover, the “% Survival at 2 hours” value was 63% in experiment [1] (EDTA 1.0 mM, BSA 1.0%, nisin 0, 20 mM Tris pH 8.0); 8.7% in [1] (EDTA 2.0 mM, nisin 0, 20 mM Tris pH 8.0); 38.7% in [1] (EDTA 2.0 mM, nisin 0, 50 mM sodium acetate pH 5.0); 15.2% in experiment [1] (EDTA 10 mM, nisin 0, pH 5.0); 14% in experiment [1] (EDTA 10 mM, nisin 0, pH 8.0); 3.5% in experiment [1] (EDTA 50 mM, nisin 0, pH 5.0). The “% Survival at 2 hours” value is listed as 11.4% in experiment [1] (EDTA 50 mM, nisin 0, pH 8.0); 45% in experiment [1] (EDTA 100 mM, nisin 0, pH 8.0); 22% in [6] (EDTA 20 mM, nisin 0, Tris pH 8.0); 27% in [8] (EDTA 1.0 mM, BSA 1.0%, nisin 0, pH 8.0). Further, the “% Survival” value in [2] (3 min) and in experiment [2] (60 min) was 100% throughout. In experiment [3], the “% survival at 1 min” value amounted to 100%. The “% Survival 2 hr” value in experiment [4] (EDTA 0.3 mM, nisin 0, 20 mM TrisHCl pH 8.0) was 4.6%; in experiment [4] (EDTA 1.0 mM, nisin 0, pH 8.0), 3.6%; in experiment [4] (EDTA 3.0 mM, nisin 0, pH 8.0) it was 8%; in experiment [4] (EDTA 10 mM, nisin 0, pH 8.0) it was 36%; in experiment [9] (EDTA 0.3 mM, nisin 0, pH 8.0) it was 100%; in experiment [9] (EDTA 1.0 mM, nisin 0, pH 8.0), 81%. Further, the “% Survival 2 hr” value in experiment [9] (EDTA 3.0 mM, nisin 0, pH 5.0) is 100%; in experiment [9] (EDTA 3.0 mM, nisin 0, pH 8.0) it was 100%; in experiment [9] (EDTA 10 mM, nisin 0, pH 8.0), 100%; in experiment [9] (EDTA 30 mM, nisin 0, pH 8.0) it was 100%. Moreover, the “Percentage E. coli Survival at 2 hours” value in [5] (EDTA 20 mM, nisin 0) is 14.5%. In addition, the “% Survival after 2 hr” value in experiment [7] (EDTA 1.0 mM, nisin 0, 20 mM TrisHCl pH 8.0) was 84%. The “% Survival at 2 hours (Unadhered cells)” value in experiment [8] (EDTA 10 mM, nisin 0, methyl paraben 0, 50 mM Na acetate pH 5.0 (Table 10)) is recorded as 11.8%; in experiment [8] (EDTA 10 mM, nisin 0, pH 5.0 (Table 7)) it was 6.4%; in [8] (EDTA 10 mM, nisin 0, pH 8.0), 5.2%.

Take `CCCCCCCCCCCC(=O)OCC(O)CO` (stereo not shown) [Monolaurin, monolaurin]: the “% survival at 2 h” value in experiment [10] (monolaurin 0.01%, nisin 0) was determined as 100%; in experiment [10] (monolaurin 0.1%, nisin 0) it was 4.5%.

As to Nisin, the “% Survival at 2 hours” value in experiment [1] (nisin 10 ug/ml, EDTA 0, BSA 0 (Table 8)) turned out to be 51.3%; in experiment [1] (nisin 100 ug/ml, EDTA 0, BSA 0 (Table 8)), 1.6%; in experiment [1] (nisin 100 μg/ml, EDTA 0, pH 5.0) it was 0.6%; in experiment [1] (nisin 100 μg/ml, EDTA 0, pH 8.0 (Table 6)), 4%; in experiment [6] (nisin 100 μg/ml, EDTA 0, 20 mM Tris pH 8.0, 37°C), 50%; in experiment [6] (nisin 300 μg/ml, EDTA 0, Tris pH 8.0), 38%. Besides, the “Percentage S. typhimurium Survival at 3 hours” value in [1] (nisin 50 μg/ml, EDTA 0, 20 mM Tris pH 8.0) came out at 7.0%; in [1] (nisin 100 μg/ml, EDTA 0, 20 mM Tris pH 8.0) it was 1.6%. In addition, the “% Survival 2 hr” value turned out to be 0.22% in [4] (nisin 3 ug/ml, EDTA 0, pH 8.0); 0.56% in [12] (nisin 100 μg/ml, monooleate 0); 0.6% in experiment [9] (nisin 3.0 μg/ml, EDTA 0, pH 5.0); 7.4% in experiment [9] (setting [13]). The “Percentage E. coli Survival at 2 hours” value is 25% in [5] (nisin 100 μg/ml, EDTA 0, Triton X-100 0) and 8.5% in [5] (nisin 300 μg/ml, EDTA 0, Triton X-100 0). Also, the “% Survival after 2 hr” value in experiment [11] is 4.3%; in experiment [7] (setting [13]), 0.71%. The “% Survival at 2 hours (Unadhered cells)” value in experiment [8] (nisin 300 ug/ml, 1% BSA, EDTA 0, pH 8.0) came to 0.02%; in experiment [8] (nisin 300 ug/ml, EDTA 0, pH 5.0), 0.1%; in experiment [8] (nisin 300 ug/ml, EDTA 0, pH 8.0) it was 7.5%. The “% survival at 2 h” value is 100% in [10] (nisin 0.02 μg/ml, monolaurin 0) and 2.2% in experiment [10] (nisin 0.2 μg/ml, monolaurin 0).

With Triton X-100, in experiment [1] (Triton X-100 1.0%, nisin 0, EDTA 0, Tris pH 8.0), the “Percentage S. typhimurium Survival at 3 hours” value is reported as 37.4%. The “Percentage E. coli Survival at 2 hours” value in experiment [5] (Triton X-100 1.0%, nisin 0, EDTA 0) stood at 100%. The “bactericidal activity towards E. coli (in words)” value in [5] (Triton X-100 1.0%, tests #3 and #4) is listed as “no significant bactericidal activity”.

In the case of monooleate, the “% Survival 2 hr” value is listed as 67% in experiment [12] (monooleate 0.1%, nisin 0) and 63% in experiment [12] (monooleate 1.0%, nisin 0). Moreover, the “bactericidal activity towards L. monocytogenes (in words)” value in experiment [12] (monooleate by itself, in milk) is on record as “no bactericidal activity”.
